Reference: ChEMBL document CHEMBL1201862, “PubChem BioAssay data set” (2004)
Activity calls are given as the source filed them.

Columns and labels:
[1] = target: T1, Lysosomal acid glucosylceramidase (Homo sapiens, UniProt P04062); assay: Dose response cell-based high throughput screening assay to identify enhancers of beta-glucosidase activity. [Related pubchem assays: 784 ]; assay type: functional
T1 sequence (P04062 whole entry): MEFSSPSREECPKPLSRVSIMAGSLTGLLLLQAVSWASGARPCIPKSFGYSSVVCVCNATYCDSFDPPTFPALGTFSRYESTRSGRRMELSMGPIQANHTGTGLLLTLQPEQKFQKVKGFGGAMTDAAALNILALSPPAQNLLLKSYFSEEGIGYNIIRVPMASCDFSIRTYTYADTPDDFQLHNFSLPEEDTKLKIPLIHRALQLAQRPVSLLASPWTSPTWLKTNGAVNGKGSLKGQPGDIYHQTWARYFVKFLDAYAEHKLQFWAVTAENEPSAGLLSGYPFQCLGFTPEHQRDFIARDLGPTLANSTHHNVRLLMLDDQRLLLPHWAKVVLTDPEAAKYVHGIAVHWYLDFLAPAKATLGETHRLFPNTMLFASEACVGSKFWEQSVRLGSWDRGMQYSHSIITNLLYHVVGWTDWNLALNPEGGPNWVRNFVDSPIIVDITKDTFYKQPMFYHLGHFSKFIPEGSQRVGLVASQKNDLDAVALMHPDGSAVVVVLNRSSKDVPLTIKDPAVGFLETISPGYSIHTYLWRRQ

[2] = A cytotoxicity screen of small molecule inhibitors of the PhoP region in Salmonella typhi identified in the primary screen. [Related pubchem assays: 1850, 1864, 1985 ]; assay type: functional
[3] = target: T2, Scavenger receptor class B member 1 (Mus musculus, UniProt Q61009); assay: inhibitors of SR-BI mediated HDL lipid uptake, dose response, ldlA[mSR-BI] cells, fluorescence, cherry pick (AID 493194); assay type: functional, cell-based;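 also: cellular uptake of fluorescent DiI-labeled HDL measured as cell fluorescence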
T2 sequence (Q61009 whole entry): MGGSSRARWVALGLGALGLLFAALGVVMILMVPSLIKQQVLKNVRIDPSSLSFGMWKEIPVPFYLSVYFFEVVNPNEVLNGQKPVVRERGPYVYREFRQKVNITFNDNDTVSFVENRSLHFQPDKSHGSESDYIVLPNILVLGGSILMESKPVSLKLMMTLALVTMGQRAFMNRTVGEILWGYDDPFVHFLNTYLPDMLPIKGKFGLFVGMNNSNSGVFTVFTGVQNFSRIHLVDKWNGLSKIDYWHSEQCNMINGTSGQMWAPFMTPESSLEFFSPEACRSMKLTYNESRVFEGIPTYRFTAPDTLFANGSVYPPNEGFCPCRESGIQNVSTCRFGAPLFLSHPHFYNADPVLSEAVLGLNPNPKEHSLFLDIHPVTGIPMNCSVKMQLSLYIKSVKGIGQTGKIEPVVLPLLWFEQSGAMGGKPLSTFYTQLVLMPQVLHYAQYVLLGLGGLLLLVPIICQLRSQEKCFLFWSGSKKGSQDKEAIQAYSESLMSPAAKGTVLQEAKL

Insulin-degrading enzyme = target: T3, Insulin-degrading enzyme (Homo sapiens, UniProt P14735); assay: Dose Response: Fluorescence polarization-based cell-based high throughput dose response assay for inhibitors of insulin-degrading enzyme (IDE). [Related pubchem assays: 434962 (Primary screen (IDE inhibitors in singlicate)), 449730 (Counterscreen (Cytotoxicity in triplicate)), 435028 (Confirmation (IDE inhibitors in triplicate)), 434984 (Summary …; assay type: functional
T3 sequence (P14735 whole entry): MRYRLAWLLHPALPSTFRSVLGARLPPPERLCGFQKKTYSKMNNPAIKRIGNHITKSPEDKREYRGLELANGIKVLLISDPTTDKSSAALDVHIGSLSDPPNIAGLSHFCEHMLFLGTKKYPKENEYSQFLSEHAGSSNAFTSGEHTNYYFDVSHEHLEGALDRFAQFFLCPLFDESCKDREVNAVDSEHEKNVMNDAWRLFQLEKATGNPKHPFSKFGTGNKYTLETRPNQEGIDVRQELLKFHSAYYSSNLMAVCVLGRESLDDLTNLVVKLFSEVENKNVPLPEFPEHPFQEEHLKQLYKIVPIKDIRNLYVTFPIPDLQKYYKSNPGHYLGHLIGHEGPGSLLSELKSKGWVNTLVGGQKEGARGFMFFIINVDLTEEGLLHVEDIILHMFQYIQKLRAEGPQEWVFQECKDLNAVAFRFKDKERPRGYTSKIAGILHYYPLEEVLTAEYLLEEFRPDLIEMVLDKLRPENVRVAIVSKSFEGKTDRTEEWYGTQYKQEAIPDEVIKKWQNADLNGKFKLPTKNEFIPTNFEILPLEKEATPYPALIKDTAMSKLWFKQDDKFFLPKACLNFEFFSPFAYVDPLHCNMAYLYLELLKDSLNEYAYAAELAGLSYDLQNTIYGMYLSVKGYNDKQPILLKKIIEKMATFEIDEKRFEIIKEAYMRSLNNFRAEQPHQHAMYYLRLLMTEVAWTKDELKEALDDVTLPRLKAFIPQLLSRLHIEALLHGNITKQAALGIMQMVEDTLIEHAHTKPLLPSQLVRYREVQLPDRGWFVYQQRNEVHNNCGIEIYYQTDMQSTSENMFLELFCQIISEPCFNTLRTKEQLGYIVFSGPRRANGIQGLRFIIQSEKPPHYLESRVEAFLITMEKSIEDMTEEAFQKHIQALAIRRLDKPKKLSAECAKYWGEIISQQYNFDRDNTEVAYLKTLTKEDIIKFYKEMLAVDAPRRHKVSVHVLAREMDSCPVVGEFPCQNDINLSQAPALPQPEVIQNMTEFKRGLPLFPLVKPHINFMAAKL

[4] = Counterscreen for IDE inhibitors: Luminescence-based cell-based high throughput dose response assay to identify compounds that are cytotoxic to HEK cells. [Related pubchem assays: 434962 (Primary screen (IDE inhibitors in singlicate)), 449730 (Counterscreen (Cytotoxicity in triplicate)), 435028 (Confirmation (IDE inhibitors in triplicate)) …; assay type: functional; details: HEK293
HEK293 [5] = assay: NOD2 signaling inhibitors in MDP-stimulated cells, cell-based, uHTS, luminescence (AID 2001); assay type: functional; details: Homo sapiens
[6] = target: Nucleotide-binding oligomerization domain-containing protein 2 (Homo sapiens, UniProt Q9HC29); assay: PubChem AID 2334; assay type: functional
HEK293 [7] = assay: cells; assay type: functional, cell-based; details: Homo sapiens
HEK293 [8] = assay: NOD1 signaling inhibitors, primary screen, cell-based, luminescence, uHTS (AID 1578); assay type: functional; details: Homo sapiens
[9] = target: T4, Nucleotide-binding oligomerization domain-containing protein 1 (Homo sapiens, UniProt Q9Y239); assay: NOD1 signaling inhibitors, SAR follow-up, revised (AID 2333); assay type: functional
T4 sequence (Q9Y239 whole entry): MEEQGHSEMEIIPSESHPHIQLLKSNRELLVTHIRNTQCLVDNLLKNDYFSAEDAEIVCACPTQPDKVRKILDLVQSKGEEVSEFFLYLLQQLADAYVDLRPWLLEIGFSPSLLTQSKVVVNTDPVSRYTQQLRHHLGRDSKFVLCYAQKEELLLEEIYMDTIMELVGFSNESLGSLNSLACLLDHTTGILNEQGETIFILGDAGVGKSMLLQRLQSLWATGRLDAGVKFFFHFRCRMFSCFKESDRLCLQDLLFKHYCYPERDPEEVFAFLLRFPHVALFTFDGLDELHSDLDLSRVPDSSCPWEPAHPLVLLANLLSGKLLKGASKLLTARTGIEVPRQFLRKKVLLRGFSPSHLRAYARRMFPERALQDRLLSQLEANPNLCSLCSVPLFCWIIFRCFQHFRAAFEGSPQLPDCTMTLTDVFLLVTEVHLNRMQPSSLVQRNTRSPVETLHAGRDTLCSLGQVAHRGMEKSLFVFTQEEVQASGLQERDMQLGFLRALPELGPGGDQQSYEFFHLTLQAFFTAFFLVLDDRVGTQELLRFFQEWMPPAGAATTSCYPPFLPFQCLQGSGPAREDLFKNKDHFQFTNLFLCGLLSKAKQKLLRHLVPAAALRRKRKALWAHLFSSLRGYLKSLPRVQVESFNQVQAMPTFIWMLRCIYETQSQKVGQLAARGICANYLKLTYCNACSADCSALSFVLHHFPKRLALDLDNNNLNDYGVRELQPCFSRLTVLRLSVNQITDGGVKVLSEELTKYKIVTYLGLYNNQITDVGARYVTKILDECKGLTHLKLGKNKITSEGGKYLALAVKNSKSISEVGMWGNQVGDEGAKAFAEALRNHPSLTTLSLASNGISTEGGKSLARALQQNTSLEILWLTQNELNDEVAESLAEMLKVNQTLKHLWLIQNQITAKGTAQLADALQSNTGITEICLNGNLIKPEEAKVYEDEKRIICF

HEK293 [10] = assay: cells; details: Homo sapiens
Tumor necrosis factor = Tumor necrosis factor (Homo sapiens, UniProt P01375); assay: TNFa-triggered NF-kB activation inhibitors, SAR follow-up, cell-based, revised (AID 2337); assay type: functional
HEK293 [11] = assay: cells; assay type: functional, cell-based; details: Homo sapiens; remark: listed apart in the source
Mucolipin-3 = target: T5, Mucolipin-3 (Homo sapiens, UniProt Q8TDD5); assay: Dose response cell-based high-throughput screening assay for agonists of the transient receptor potential channel ML3 (TRPML3). [Related pubchem assays: 1526, 1424, 1448 ]; assay type: functional
T5 sequence (Q8TDD5 whole entry): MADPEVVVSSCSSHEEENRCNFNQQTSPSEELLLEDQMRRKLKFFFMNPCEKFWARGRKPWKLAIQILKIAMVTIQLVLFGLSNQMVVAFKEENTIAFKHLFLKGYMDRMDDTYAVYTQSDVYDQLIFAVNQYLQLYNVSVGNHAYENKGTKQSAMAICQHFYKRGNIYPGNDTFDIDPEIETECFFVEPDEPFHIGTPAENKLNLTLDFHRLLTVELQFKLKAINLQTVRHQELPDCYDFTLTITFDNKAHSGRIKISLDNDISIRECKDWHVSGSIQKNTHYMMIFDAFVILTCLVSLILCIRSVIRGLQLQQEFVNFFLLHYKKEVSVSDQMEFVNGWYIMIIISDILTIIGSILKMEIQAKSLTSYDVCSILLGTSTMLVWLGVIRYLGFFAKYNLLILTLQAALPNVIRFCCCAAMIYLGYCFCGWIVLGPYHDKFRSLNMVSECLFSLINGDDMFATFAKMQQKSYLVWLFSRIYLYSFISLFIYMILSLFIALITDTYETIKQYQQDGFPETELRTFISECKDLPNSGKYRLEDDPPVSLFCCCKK

Ion channel NompC = Ion channel NompC (Danio rerio, UniProt Q7T1G6); assay: Fluorescence counterscreen assay for TRPML3 agonists: dose response cell-based high-throughput screening assay to identify agonists of the transient receptor potential channel N1 (TRPN1). [Related pubchem assays: 1526, 1424, 1448 ]; assay type: functional
[12] = target: Dual specificity protein phosphatase 3 (Homo sapiens, UniProt P51452); assay: VHR1 inhibitor Ki determination, SAR follow-up, biochemical, colorimetric (AID 2004)
INS1 = assay: beta cell apoptosis inhibitors, cytokine rescue, dose response, luminescence, retest (AID 449756); assay type: functional, cell-based; details: Rattus norvegicus;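 also: cell death triggered by IL-1 beta plus TNF-alpha plus IFN-gamma mixture; protective hits raise ATP signal compared with cytokine alone wells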
[13] = target: Induced myeloid leukemia cell differentiation protein Mcl-1 (Homo sapiens, UniProt Q07820); assay type: functional
[14] = target: Eukaryotic translation initiation factor 4E (Mus musculus, UniProt P63073); assay: eIF4E–eIF4G protein interaction inhibitors, dose response, biochemical, TR-FRET (AID 855); assay type: functional;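 also: potency for disrupting eIF4E binding to eIF4GI seen as loss of FRET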
Large T antigen = Large T antigen (Simian virus 40, UniProt P03070); assay type: functional, Betapolyomavirus macacae;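 also: Confirmatory-stage PubChem screen for compounds that inhibit SV40 T antigen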
Chain of Large T antigen (P03070 whole entry): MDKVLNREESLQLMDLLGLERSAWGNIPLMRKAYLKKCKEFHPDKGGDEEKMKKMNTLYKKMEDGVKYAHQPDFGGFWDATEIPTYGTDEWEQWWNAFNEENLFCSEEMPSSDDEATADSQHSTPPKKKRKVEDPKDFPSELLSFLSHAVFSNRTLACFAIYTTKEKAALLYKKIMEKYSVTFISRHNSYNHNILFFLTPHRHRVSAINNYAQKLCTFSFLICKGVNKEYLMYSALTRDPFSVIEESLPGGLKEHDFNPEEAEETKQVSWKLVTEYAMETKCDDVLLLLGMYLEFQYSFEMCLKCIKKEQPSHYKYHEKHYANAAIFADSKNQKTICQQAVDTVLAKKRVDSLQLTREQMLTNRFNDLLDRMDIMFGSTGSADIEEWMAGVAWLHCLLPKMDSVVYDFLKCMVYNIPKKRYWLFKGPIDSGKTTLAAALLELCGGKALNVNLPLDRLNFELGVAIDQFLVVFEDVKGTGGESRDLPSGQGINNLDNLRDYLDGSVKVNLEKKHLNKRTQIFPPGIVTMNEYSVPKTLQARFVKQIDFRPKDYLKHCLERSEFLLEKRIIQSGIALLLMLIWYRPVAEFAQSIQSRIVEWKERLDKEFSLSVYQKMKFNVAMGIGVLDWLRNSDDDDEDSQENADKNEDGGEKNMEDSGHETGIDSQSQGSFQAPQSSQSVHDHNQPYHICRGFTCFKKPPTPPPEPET

Chain of Ion channel NompC (Q7T1G6 whole entry): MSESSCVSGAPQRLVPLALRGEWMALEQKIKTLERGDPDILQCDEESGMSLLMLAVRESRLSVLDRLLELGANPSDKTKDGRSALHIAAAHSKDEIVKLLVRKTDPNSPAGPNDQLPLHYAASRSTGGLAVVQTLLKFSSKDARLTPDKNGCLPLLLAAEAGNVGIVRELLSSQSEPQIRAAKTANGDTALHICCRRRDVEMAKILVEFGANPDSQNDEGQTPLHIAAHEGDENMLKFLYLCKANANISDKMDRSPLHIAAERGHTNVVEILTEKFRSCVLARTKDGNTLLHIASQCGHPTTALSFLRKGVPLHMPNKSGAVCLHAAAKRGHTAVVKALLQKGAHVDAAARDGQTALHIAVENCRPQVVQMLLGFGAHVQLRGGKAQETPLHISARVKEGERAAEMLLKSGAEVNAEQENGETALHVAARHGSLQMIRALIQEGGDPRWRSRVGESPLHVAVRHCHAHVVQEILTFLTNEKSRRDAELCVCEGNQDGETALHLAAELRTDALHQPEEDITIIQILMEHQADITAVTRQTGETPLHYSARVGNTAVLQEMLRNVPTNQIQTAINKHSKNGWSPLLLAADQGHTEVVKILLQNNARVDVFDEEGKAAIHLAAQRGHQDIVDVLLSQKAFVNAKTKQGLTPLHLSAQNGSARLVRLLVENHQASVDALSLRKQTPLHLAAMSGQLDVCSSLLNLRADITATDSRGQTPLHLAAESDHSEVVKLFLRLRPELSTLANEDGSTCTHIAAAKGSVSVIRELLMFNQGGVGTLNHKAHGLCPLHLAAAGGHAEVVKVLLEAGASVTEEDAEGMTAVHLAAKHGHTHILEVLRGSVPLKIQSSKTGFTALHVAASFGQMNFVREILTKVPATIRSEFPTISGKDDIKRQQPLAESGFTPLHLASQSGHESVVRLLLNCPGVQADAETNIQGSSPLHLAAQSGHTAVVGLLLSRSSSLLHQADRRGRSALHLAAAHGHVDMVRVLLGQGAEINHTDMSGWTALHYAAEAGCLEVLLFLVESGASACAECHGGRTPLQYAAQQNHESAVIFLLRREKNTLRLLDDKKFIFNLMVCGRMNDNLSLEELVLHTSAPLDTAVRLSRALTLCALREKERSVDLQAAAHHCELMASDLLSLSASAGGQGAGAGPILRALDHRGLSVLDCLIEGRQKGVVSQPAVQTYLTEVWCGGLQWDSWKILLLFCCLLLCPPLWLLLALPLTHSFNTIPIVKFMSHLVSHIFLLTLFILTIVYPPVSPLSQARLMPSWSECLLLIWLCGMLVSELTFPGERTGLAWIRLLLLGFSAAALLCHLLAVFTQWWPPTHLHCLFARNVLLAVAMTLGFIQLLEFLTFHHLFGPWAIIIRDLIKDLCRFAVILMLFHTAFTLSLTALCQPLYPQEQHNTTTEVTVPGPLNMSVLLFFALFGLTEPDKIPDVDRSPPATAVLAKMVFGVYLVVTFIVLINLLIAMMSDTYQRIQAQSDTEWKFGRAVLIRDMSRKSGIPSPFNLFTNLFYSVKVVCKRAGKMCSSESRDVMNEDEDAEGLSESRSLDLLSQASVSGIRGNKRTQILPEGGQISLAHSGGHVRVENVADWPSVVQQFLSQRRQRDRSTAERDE
Chain of Nucleotide-binding oligomerization domain-containing protein 2 (Q9HC29 whole entry, the tested form may be a part): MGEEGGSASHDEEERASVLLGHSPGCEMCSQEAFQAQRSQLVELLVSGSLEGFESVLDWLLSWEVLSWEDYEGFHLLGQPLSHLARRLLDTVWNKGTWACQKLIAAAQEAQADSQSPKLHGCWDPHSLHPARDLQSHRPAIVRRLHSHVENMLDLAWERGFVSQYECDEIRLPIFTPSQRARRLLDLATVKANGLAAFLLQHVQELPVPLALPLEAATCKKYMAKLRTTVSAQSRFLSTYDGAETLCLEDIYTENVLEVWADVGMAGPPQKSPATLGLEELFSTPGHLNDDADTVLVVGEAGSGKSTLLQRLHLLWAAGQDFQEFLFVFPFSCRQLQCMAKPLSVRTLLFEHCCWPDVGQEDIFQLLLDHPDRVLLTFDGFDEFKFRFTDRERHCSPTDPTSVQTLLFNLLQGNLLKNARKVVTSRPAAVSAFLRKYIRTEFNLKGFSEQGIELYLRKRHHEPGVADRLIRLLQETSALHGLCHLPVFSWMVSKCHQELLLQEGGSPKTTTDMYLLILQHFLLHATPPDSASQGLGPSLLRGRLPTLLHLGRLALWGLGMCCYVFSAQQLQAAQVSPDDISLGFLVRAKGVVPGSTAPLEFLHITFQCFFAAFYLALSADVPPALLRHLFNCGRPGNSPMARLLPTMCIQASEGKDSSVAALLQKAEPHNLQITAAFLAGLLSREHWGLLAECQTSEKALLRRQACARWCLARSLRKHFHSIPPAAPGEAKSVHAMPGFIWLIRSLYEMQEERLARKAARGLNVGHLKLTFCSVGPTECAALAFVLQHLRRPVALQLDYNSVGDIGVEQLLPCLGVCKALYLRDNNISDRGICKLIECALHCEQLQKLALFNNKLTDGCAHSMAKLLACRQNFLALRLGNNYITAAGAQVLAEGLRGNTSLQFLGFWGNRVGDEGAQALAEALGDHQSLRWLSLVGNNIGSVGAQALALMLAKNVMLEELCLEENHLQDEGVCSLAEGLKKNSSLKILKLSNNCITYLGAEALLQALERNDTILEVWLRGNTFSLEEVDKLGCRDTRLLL
Chain of Dual specificity protein phosphatase 3 (P51452 whole entry): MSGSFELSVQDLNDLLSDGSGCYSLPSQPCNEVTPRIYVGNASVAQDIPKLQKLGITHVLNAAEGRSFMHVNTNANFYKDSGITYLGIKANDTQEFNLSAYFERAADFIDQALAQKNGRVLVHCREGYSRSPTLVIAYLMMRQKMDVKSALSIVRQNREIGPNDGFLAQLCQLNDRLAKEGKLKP
Chain of Tumor necrosis factor (P01375 whole entry): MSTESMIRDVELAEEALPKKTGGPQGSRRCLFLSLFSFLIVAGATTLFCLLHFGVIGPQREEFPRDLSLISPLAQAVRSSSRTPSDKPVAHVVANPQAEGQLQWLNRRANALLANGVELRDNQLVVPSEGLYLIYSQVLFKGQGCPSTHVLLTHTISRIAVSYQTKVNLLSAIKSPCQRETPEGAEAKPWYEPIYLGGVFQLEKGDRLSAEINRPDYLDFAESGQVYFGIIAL
Chain of Eukaryotic translation initiation factor 4E (P63073 whole entry): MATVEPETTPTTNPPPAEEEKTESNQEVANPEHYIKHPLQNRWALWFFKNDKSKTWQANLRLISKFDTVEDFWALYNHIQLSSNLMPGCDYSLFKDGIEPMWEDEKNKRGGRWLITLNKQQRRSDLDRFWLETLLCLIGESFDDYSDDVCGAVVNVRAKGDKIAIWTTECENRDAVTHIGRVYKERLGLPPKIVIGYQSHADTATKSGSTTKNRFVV
Chain of Induced myeloid leukemia cell differentiation protein Mcl-1 (Q07820 whole entry): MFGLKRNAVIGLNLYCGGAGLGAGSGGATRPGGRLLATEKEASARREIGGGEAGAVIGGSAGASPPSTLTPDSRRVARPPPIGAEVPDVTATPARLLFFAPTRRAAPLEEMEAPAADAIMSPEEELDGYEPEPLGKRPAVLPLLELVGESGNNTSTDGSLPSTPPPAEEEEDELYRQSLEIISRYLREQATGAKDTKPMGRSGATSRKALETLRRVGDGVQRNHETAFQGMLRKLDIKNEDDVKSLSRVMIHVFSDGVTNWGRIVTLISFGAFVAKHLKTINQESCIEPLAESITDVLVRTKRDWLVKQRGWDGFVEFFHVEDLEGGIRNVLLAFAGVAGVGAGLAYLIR

CCN1CCN(C(c2ccc(OC)c(OC)c2)c2nnnn2C(C)(C)C)CC1 (configuration not stated)
EC50 [1]: > 50 µM (not active)

Oc1c(Br)cc(Br)cc1CNc1ccccn1
EC50 [2]: > 50 µM (active)

CCc1cc2cc3c(cc2nc1SCC(=O)OC(C)C)OCO3
AC50 [3]: 0.366 µM (active)

COc1ccc2[nH]c3c(NCc4ccco4)ncnc3c2c1
IC50 (Insulin-degrading enzyme): 21.2 µM (not active)
IC50 [4]: 19.3 µM (not active)

O=C1CC(Cc2ccccc2)C(=O)N1c1ccc(Cl)cn1 (configuration not stated)
EC50 [1]: > 10 µM (not active)

CCCCn1c(SCC(=O)Nc2nnc(C(C)C)s2)nc2c1c(=O)n(C)c(=O)n2C
IC50 (HEK293 [5]): 9.58 µM (active)
IC50 [6]: 6.89 µM (active)
IC50 (HEK293 [7]): > 20 µM (inactive)
EC50 (HEK293 [8]): 7.02 µM (active)
IC50 [9]: 5.79 µM (active)
IC50 (HEK293 [10]): > 20 µM (inactive)
IC50 (Tumor necrosis factor): 5.82 µM (active)
IC50 (HEK293 [11]): > 20 µM (inactive)

CCCOc1ccc(S(=O)(=O)n2cc(F)c(=O)[nH]c2=O)cc1
EC50 [2]: > 50 µM (active)

O=S(=O)(c1ccc2ccccc2c1)N1CCCCCC1
EC50 (Mucolipin-3): 1.71 µM (active)
EC50 (Ion channel NompC): > 29.9 µM (not active)

COc1ccc(C(=O)C2CCN(CC(=O)Nc3cc(C)cc(C)c3)CC2)cc1
EC50 [2]: > 50 µM (active)

COc1cc2c(C(=O)NCCCN3CCN(c4cccc(Cl)c4)CC3)cn(C)c(=O)c2cc1OC
EC50 [1]: > 50 µM (not active)

CCN1C(=O)/C(=C/c2ccoc2)C(=O)NC1=S
Ki [12]: 56.7 µM (inactive)

CCOc1ccccc1Nc1nc(-c2sc(NC(=O)c3cccc(Cl)c3)nc2C)cs1
AC50 [3]: 5.75 µM (active)

COc1ccc(OC)c(CCNC(=O)c2ccc3c(c2)N(Cc2ccc(F)cc2)CCS3)c1
AC50 [3]: 1.7 µM (active)

CC1=CC(C)(C)N(C(=O)CSc2nnc(-c3ccc(C)cc3)o2)c2ccc(C)cc21
EC50 (Mucolipin-3): 7.81 µM (active)
EC50 (Ion channel NompC): > 29.9 µM (not active)
AC50 (INS1): 14.8 µM (active)

CCOc1cc(/C=C2/N=C(c3ccc(NC(C)=O)cc3)OC2=O)ccc1OCc1ccccc1
Ki [12]: 22.9 µM (inactive)

COc1ccc(C(=O)c2sc3nc(-c4ccccc4)ccc3c2N)cc1
IC50 (Insulin-degrading enzyme): > 55.9 µM (not active)
IC50 [4]: 25.4 µM (not active)

Nc1nc2ccccc2n1Cc1ccccc1Cl
IC50 [6]: 15.3 µM (active)
IC50 [9]: 12.9 µM (active)
IC50 (HEK293 [10]): > 20 µM (inactive)
IC50 (Tumor necrosis factor): 12.5 µM (active)

O=c1/c(=C\c2cc([N+](=O)[O-])cc([N+](=O)[O-])c2O)sc2nc3ccccc3n12
IC50 (Insulin-degrading enzyme): > 55.9 µM (not active)
IC50 [13]: 1.54 µM (active)
IC50 [14]: 50 µM (inactive)
IC50 (Large T antigen): 52.8 µM (active)
IC50 [4]: > 55.7 µM (not active)
